Assay results reported in US20220235136A1, “METHODS AND COMPOSITIONS FOR TREATING A DISEASE OR DISORDER” (YALE UNIVERSITY, priority 2019, published 2022).

How the values were obtained:
B16 melanoma = assay: subcutaneous B16 melanoma mouse tumor model; settings: alone or combination
Description: For B16 tumor model, C57BL/6 mice were inoculated subcutaneously with B16 melanoma at 2×1^5 per mouse. […] CD93 mAb (300 μg i.p.) treatment was administrated on the day of randomization (day 0), day 4 and day 9. 5-FU (3.5 mg i.p.) was administrated on day 2 and day 7. Measurements of tumor size were taken every 2 or 3 days. When tumor volume was exceeding 2000 mm^3 and/or ulceration formed, tumor bearing mice were considered as death for the calculation of survival curve.

HUVEC cells = assay: HUVEC tube formation and transwell migration assay with exogenous IGFBP7 protein; format: cell-based, human
Description: Pooled human umbilical vein ECs (HUVEC) purchased from Thermo Fisher were cultured in Medium 200 with LVES (Life Technologies). C57BL/6 mouse primary aortic ECs and the endothelium culture medium with supplement were purchased from Cell Biologics. For tube formation, HUVECs at 2×10^4 cells/ml were plated on Matrigel in 24-well plate. Image was recorded even 4-6 hours after incubation. The Transwell 6.5 mm polycarbonate membrane inserts pre-loaded in 24-well culture plates (Corning 3422, 8 um) were used in the cell migration model. HUVEC cells at 1×10^5/ml in 200 μl were loaded into each 24-well insert with 500 μl IBS-containing medium with different reagents in the lower chamber. After approximately 20 hours, the migrated cells were fixed with methanol, stained with Giemsa solution and counted under a light microscope.

human IGF1R = target: T1, human IGF1R (Homo sapiens, UniProt P08069); assay: IGFBP7-Ig binding to IGF1R transfected CHO cells (flow cytometry)
T1 construct: expressed in transfected cells; host or cells: CHO
Description: Wild type CHO and IGF1R transfected CHO cells were stained for human IGF1R staining antibody to confirm surface IGF1R expression. At the same time, cells were incubated with IGFBP7-Ig for possible interaction by flow cytometry analysis, […]

CD93 = target: T2, CD93 (Homo sapiens, UniProt Q9NPY3); assay: binding of Ig fusion proteins to CD93 transfectant (flow cytometry)
T2 construct: expressed in transfected cells; host or cells: 293 cells (CD93+ 293)
T2 sequence (Q9NPY3 22-652): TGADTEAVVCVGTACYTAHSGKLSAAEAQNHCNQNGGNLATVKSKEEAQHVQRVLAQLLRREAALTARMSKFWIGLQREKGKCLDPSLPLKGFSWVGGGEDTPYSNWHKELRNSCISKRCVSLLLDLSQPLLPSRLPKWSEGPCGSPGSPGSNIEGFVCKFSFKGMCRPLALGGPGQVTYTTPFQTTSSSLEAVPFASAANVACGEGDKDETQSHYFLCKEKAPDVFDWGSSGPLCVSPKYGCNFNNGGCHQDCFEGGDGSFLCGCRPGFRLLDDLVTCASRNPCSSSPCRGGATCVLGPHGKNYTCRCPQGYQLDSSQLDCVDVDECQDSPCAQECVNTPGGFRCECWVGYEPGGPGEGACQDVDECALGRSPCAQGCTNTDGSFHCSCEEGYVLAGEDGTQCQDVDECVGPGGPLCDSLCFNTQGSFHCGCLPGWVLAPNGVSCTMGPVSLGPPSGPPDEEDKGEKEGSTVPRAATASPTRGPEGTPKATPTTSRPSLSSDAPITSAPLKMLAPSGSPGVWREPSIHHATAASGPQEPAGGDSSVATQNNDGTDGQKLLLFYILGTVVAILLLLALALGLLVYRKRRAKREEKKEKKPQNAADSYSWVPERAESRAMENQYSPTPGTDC
Description: FIGS. 10A-10B show identification of the binding domain on IGFBP7 for CD93. Each extracellular domain for IGFBP7, including insulin binding (IB). Kazal, and Ig, was swapped with the corresponding domain on IGFBPL1 using PCR cloning and fused to a C-terminal Ig. These chimeric mutants were transiently expressed in HEK293T cells and supernatants were used to stain CD93 transfectant. FIG. 10A depicts whether multiple chimeric IGFBP7 mutants bind to CD93. FIG. 10B depicts various human genes containing IB-domain constructed onto an expression vector containing Fc-Tag. Constructs were transiently transduced into HEK293T cells to produce Fc tagged fusion proteins in the supernatant. Supernatant was used to stain CD93 transfectant by flow cytometry. Binding index represents the ratio of binding MFI of CD93 transfectant to control cells.
The IGFBP7-IGFBPL1 chimeras were generated by two-step PCR. […]
Cell surface and intercellular staining and analysis by flow cytometry were followed the protocol previously described (71). Dead cells were excluded with SYTOX® (Blue Dead Cell Stain Kit (Thermo Fisher Scientific). Flow cytometric analysis was conducted with a BD FACS Calibur or a BD LSRFortessa™ cell analyzer (BD Bioscience, Franklin Lakes, N.J. USA), and then data were analyzed by FlowJo software (Tree Star Inc.)

CD93 binding by MMRN2 = target: T3, CD93 binding by MMRN2 (Homo sapiens, UniProt Q9NPY3); assay: MMRN2-Ig binding to CD93-expressing CHO cells in the presence of IGFBP7-His; settings: IGFBP7 added
T3 construct: expressed in transfected cells
T3 sequence (Q9NPY3 22-652): T2 sequence (Q9NPY3 22-652)
T3 sequence (Q9H8L6 23-949 partner): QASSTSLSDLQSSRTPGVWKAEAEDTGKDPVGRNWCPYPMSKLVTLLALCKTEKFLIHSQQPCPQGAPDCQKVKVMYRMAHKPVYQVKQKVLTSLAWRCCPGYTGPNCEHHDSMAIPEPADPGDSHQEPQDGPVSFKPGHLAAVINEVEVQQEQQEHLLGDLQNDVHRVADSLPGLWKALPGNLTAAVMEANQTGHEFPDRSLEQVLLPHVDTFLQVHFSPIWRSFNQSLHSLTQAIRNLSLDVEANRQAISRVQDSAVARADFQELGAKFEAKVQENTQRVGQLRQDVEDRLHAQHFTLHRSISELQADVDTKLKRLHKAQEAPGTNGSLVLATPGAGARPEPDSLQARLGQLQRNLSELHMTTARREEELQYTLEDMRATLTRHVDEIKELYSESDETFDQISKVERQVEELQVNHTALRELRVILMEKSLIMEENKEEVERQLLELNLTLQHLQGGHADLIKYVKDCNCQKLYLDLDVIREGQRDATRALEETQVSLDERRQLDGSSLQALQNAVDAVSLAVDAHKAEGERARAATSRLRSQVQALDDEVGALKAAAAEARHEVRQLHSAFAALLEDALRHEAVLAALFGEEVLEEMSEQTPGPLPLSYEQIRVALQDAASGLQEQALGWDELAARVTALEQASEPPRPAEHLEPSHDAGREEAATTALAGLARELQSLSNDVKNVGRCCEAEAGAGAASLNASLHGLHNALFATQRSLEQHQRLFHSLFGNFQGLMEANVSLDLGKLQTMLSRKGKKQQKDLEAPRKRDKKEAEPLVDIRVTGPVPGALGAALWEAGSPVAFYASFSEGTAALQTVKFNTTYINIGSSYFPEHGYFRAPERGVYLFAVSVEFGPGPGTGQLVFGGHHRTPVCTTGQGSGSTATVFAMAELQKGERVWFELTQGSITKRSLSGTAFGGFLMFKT
Description: In FIG. 28A, binding of HEK293 T cells transfected to express group 14 C-type lectin molecules were stained for the binding of IGFBP7-Ig and MMRN2-Ig. In FIG. 28B. CHO cells stably expressing CD93 were stained with control or MMRN2-Ig, with or without the presence of IGFBP7-His protein. In FIG. 28C, well coated with IGFBP7-His protein were incubated with CD93-His protein before examining for MMRN2-Ig binding by ELISA. Wells coated with CD93-His protein were used as a positive control. In FIG. 28D. HEK293T cells transfected with control or CD93 construct were stained with MMRN-Ig for binding, with or without the presence of anti-mCD93 (7C10). In FIG. 28E HEK293T cells transfected to express different mouse CD93 mutants were stained with anti-CD93 (7C10), IGFBP7-Ig, and MMRN2-Ig.

[1] = tested on: IGFBP7 expression in tumor endothelial cells; settings: 24 hours after treatment; published RNA-Seq data; cited from earlier work

T1 sequence (P08069 31-736 limits assumed): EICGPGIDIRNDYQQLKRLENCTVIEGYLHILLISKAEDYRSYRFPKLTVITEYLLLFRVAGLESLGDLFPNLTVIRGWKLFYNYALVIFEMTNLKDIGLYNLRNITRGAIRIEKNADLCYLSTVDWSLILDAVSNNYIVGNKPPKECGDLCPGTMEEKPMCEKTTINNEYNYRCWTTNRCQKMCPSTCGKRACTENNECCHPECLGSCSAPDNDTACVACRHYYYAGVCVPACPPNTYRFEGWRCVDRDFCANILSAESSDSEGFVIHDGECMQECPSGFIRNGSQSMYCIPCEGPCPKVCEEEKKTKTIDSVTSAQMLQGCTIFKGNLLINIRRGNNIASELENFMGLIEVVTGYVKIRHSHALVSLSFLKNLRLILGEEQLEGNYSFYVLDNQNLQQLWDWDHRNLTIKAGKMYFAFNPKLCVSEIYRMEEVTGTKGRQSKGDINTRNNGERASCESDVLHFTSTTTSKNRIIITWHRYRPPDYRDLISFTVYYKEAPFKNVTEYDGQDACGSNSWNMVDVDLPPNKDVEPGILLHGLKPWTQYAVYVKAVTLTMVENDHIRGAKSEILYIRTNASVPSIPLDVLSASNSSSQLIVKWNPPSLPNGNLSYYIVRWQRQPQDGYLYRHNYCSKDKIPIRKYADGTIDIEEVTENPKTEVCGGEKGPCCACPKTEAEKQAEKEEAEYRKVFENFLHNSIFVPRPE
T1 sequence (P08069 741-1367 limits assumed): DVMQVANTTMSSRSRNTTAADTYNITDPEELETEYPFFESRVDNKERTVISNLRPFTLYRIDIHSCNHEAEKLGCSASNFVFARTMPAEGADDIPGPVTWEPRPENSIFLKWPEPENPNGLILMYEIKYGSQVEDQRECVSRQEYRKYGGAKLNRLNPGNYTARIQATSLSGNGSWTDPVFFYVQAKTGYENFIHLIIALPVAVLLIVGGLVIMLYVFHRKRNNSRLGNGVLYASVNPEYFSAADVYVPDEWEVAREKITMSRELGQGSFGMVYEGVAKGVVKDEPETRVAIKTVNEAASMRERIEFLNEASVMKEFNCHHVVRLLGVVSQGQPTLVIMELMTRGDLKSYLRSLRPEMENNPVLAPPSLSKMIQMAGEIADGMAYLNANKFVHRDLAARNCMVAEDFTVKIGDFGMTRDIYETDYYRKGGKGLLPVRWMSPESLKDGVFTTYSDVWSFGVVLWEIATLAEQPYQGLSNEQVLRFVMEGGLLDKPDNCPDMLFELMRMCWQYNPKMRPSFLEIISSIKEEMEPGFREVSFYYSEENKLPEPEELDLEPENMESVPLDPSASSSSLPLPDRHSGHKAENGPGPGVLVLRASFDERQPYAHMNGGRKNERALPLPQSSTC

## O=c1[nH]cc(F)c(=O)[nH]1 [5-FU, 5-fluorouracil]
B16 melanoma
  B16 tumor growth: modestly inhibited

## IGFBP7: a secreted protein of the insulin growth factor binding protein (IGFBP) family; recombinant protein / Fc fusion
HUVEC cells; CD93 siRNA
  tube formation or EC migration in CD93 knockdown HUVEC cells: lost its effect
HUVEC cells; exogenous protein added
  tube formation and proliferation of wild type HUVEC cells: increased
Human IGF1R
  binding to human IGF1R transfectant: fails to bind
CD93; flow cytometry
  binding to CD93 293 cells / CD93 transfectant: strongly
CD93; transfected HEK293T cells
  binding to group 14 C-type lectin molecules: only bound to CD93
CD93 binding by MMRN2
  effect on the CD93 binding by MMRN2: did not interfere

## aflibercept: a VEGF inhibitor
[1]
  IGFBP7 in tumor ECs: significantly inhibited
